From PubChem BioAssay (NCI)
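Assay format: 96-well plates, 48-hour exposure. TGI is the concentration that stops growth completely.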

What was measured:
Test in all cases: NCI-60 cell line screen, 48 h
[1] = system: NCI-H23 lung
[2] = system: UACC-62 melanoma
[3] = system: LXFL 529 NSCLC
[4] = system: RPMI-8226 leukemia
[5] = system: EKVX NSCLC
[6] = system: RXF 393 renal
[7] = system: SW-620 colon
[8] = system: COLO 205 colon
[9] = system: HCT-116 colon
[10] = system: OVCAR-5 ovarian
[11] = system: SK-MEL-2 melanoma
[12] = system: M19-MEL melanoma
[13] = system: MALME-3M melanoma
[14] = system: U251 CNS
[15] = system: LOX IMVI melanoma
[16] = system: SN12C renal
[17] = system: HL-60(TB) leukemia
[18] = system: HOP-62 NSCLC
[19] = system: KM12 colon
[20] = system: HCT-15 colon
[21] = system: SF-295 CNS
[22] = system: A549 NSCLC
[23] = system: M14 melanoma
[24] = system: SK-OV-3 ovarian
[25] = system: OVCAR-4 ovarian
[26] = system: NCI-H226 lung
[27] = system: SNB-19 CNS
[28] = system: SK-MEL-28 melanoma
[29] = system: OVCAR-3 ovarian
[30] = system: SF-268 CNS
[31] = system: TK-10 renal
[32] = system: DLD-1 colon
[33] = system: 786-0 renal
[34] = system: KM20L2 colon
[35] = system: NCI-H460 lung
[36] = system: K-562 leukemia
[37] = system: DMS 273 small cell lung
[38] = system: HCC-2998 colon
[39] = system: NCI-H522 lung
[40] = system: MOLT-4 leukemia
[41] = system: HT29 colon
[42] = system: UACC-257 melanoma
[43] = system: IGROV1 ovarian
[44] = system: SR leukemia
[45] = system: XF 498 CNS
[46] = system: SK-MEL-5 melanoma
[47] = system: CAKI-1 renal
[48] = system: OVCAR-8 ovarian
[49] = system: UO-31 renal
[50] = system: DMS 114 small cell lung
[51] = system: SNB-75 CNS
[52] = system: NCI/ADR-RES ovarian
[53] = system: ACHN renal
[54] = system: MDA-MB-435
[55] = system: HOP-92 NSCLC
[56] = system: MCF7 breast
[57] = system: HS 578T breast
[58] = system: T-47D breast
[59] = system: MDA-MB-231 breast
[60] = system: BT-549 breast
[61] = system: MDA-N
[62] = system: PC-3 prostate
[63] = system: A498 renal
[64] = system: SF-539 CNS
[65] = system: DU-145 prostate

Clc1ccc2c(Cl)ncnc2c1I
TGI [1]: > 100 µM
TGI [2]: > 100 µM
TGI [3]: > 100 µM
TGI [4]: > 100 µM
TGI [5]: 99.4 µM
TGI [6]: > 100 µM
TGI [7]: > 100 µM
TGI [8]: > 100 µM
TGI [9]: > 100 µM
TGI [10]: > 100 µM
TGI [11]: > 100 µM
TGI [12]: > 100 µM
TGI [13]: > 100 µM
TGI [14]: > 100 µM
TGI [15]: > 100 µM
TGI [16]: > 100 µM
TGI [17]: 44.6 µM
TGI [18]: > 100 µM
TGI [19]: > 100 µM
TGI [20]: > 100 µM
TGI [21]: > 100 µM
TGI [22]: > 100 µM
TGI [23]: > 100 µM
TGI [24]: > 100 µM
TGI [25]: > 100 µM
TGI [26]: 93.3 µM
TGI [27]: > 100 µM
TGI [28]: > 100 µM
TGI [29]: > 100 µM
TGI [30]: > 100 µM
TGI [31]: > 100 µM
TGI [32]: > 100 µM
TGI [33]: > 100 µM
TGI [34]: > 100 µM
TGI [35]: > 100 µM
TGI [36]: > 100 µM
TGI [37]: > 100 µM
TGI [38]: > 100 µM
TGI [39]: 56.6 µM
TGI [40]: 61.4 µM
TGI [41]: > 100 µM
TGI [42]: > 100 µM
TGI [43]: > 100 µM
TGI [44]: > 100 µM
TGI [45]: > 100 µM
TGI [46]: > 100 µM
TGI [47]: > 100 µM
TGI [48]: > 100 µM
TGI [49]: > 100 µM
TGI [50]: > 100 µM
TGI [51]: 75 µM

c1cncc(-c2cc(-c3cc(-c4cccnc4)n[nH]3)[nH]n2)c1
TGI [1]: > 100 µM
TGI [2]: > 100 µM
TGI [4]: > 100 µM
TGI [5]: > 100 µM
TGI [52]: > 100 µM
TGI [6]: > 100 µM
TGI [7]: > 100 µM
TGI [8]: > 100 µM
TGI [9]: > 100 µM
TGI [10]: > 100 µM
TGI [11]: > 100 µM
TGI [13]: > 100 µM
TGI [14]: > 100 µM
TGI [15]: > 100 µM
TGI [16]: > 100 µM
TGI [17]: > 100 µM
TGI [53]: > 100 µM
TGI [18]: > 100 µM
TGI [54]: > 100 µM
TGI [55]: > 100 µM
TGI [19]: > 100 µM
TGI [20]: > 100 µM
TGI [56]: > 100 µM
TGI [21]: > 100 µM
TGI [22]: > 100 µM
TGI [23]: > 100 µM
TGI [24]: > 100 µM
TGI [25]: > 100 µM
TGI [26]: > 100 µM
TGI [57]: > 100 µM
TGI [27]: > 100 µM
TGI [28]: > 100 µM
TGI [29]: > 100 µM
TGI [58]: > 100 µM
TGI [59]: > 100 µM
TGI [30]: > 100 µM
TGI [31]: > 100 µM
TGI [60]: > 100 µM
TGI [33]: > 100 µM
TGI [35]: > 100 µM
TGI [36]: > 100 µM
TGI [38]: > 100 µM
TGI [39]: > 100 µM
TGI [40]: > 100 µM
TGI [41]: > 100 µM
TGI [42]: > 100 µM
TGI [43]: > 100 µM
TGI [61]: > 100 µM
TGI [44]: > 100 µM
TGI [62]: > 100 µM
TGI [46]: > 100 µM
TGI [47]: > 100 µM
TGI [63]: > 100 µM
TGI [48]: > 100 µM
TGI [49]: > 100 µM
TGI [64]: > 100 µM
TGI [65]: > 100 µM
TGI [51]: > 100 µM
